Consider 21 compounds from patent US20140121231A1, “PYRANOPYRIDONE INHIBITORS OF TANKYRASE” (Hoffmann-La Roche, Inc., priority 2012, published 2014).

By IC50 is commonly meant the point on the concentration scale where inhibition reaches its midpoint.

One assay deals with T1, Tankyrase 1 (TNKS1) (Homo sapiens, UniProt O95271).
T1 construct: His6-TNKS1, MW=28.2 KDa (construct: 1088-1327, 1266M)
Put plainly: μHTS-TNKS-IWR2 TR-FRET Binding Assay (Example 71), TNKS1. The method, then: (§1) μHTS-TNKS-IWR2 TR-FRET Binding Assay (10 μL/well in BD1536-well plate, a single point)
(§2) Assay buffer 1a (AB1a) for TNKS dilution: 50 mM Tris, pH 7.4, 100 mM sodium chloride solution, 1 mM magnesium chloride solution, 1 mM DL-dithiothreitol solution, 0.2 mg/mL bovine serum albumin solution, 0.025% NP-40. Assay buffer 1b (AB 1b) for Biotin-IWR2 dilution: 50 mM Tris, pH 7.4, 100 mM sodium chloride solution, 1 mM magnesium chloride solution, 1 mM DL-dithiothreitol solution, 0.2 mg/mL bovine serum albumin solution, 0.05% NP-40 Assay buffer 1c (AB 1c) for compound dilution: 50 mM Tris, pH 7.4, 100 mM sodium chloride solution, 1 mM magnesium chloride solution, 1 mM DL-dithiothreitol solution, 0.2 mg/mL bovine serum albumin solution Assay buffer 2 (AB2) for Eu/APC: 50 mM Tris, pH 7.4, 100 mM sodium chloride solution, 1 mM magnesium chloride solution, 0.2 mg/mL bovine serum albumin solution
(§3) Transfer 3 μL/well of above solution (solution 1,2,3) to an empty assay plate (BD1536-well plate) as follows: TOTAL and cpd wells: Solution 1 (Biotin-IWR2): BLANK wells: Solution 2 (No Biotin-IWR2): POSITIVE CONTROL wells: Solution 3 (Biotin-IWR2XAV939) Transfer 3 μL/well of the above diluted compound solutions or compound dilution buffer to the above assay plate. Add 2 μL/well of 300 nM TNKS stock solution (4) to every well in the above assay plate. Centrifuge the assay plate at 2100 rpm for 2 min. Incubate the assay plate at 26° C. for 30 minutes. Add 2 μL/well 3.5 nMEu/50 nM APC solution (5) to every well in the above assay plate. Centrifuge the assay plate at 2100 rpm for 2 min. Incubate the assay plate at 26° C. for 60 min.
On the technique in general: Time-resolved FRET reads energy transfer from a long-lived donor to a nearby acceptor.

The target of another assay is T2, tankyrase 2 (His6-TNKS2) (Homo sapiens, UniProt Q9H2K2).
T2 construct: His6-tankyrase 2 (construct: 934-1166) (His6-TNKS2)
T2 sequence (Q9H2K2 934-1166): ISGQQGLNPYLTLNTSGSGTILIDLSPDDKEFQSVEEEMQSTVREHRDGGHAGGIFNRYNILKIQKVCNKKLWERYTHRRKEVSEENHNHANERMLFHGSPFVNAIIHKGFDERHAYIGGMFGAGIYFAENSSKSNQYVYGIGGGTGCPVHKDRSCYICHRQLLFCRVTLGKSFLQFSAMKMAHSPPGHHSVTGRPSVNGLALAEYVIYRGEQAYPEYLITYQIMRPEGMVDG
The assay can be described thus: μHTS-TNKS-IWR2 TR-FRET Binding Assay (Example 71), TNKS2. The conditions noted are these: footnote 1: Tankyrase 1 and 2 inhibition assay in Example 71 (TR-FRET). The method, then:
as §1
Biotin-4-((1S,2R,6S,7R)-3,5-Dioxo-4-aza-tricyclo[5.2.1.0*2,6*]dec-8-en-4-yl)-N-(4-methyl-quinolin-8-yl)-benzamide (Biotin-IWR2): 10 mM Biotin-IWR2 stock in DMSO, stored at −20° C. Positive control: 10 mM 2-(4-Trifluoromethyl-phenyl)-3,5,7,8-tetrahydro-thiopyrano[4,3-d]pyrimidin-4-one (XAV939) in DMSO, stored at −20° C.
as §2, §3

For assay [1], the target named is T3, PARP1 (His6-PARP1, full length) (Homo sapiens, UniProt P09874).
T3 construct: His6-PARP1 (full length) can be substituted for His6-TNKS 1
T3 sequence (P09874 whole entry, species assumed): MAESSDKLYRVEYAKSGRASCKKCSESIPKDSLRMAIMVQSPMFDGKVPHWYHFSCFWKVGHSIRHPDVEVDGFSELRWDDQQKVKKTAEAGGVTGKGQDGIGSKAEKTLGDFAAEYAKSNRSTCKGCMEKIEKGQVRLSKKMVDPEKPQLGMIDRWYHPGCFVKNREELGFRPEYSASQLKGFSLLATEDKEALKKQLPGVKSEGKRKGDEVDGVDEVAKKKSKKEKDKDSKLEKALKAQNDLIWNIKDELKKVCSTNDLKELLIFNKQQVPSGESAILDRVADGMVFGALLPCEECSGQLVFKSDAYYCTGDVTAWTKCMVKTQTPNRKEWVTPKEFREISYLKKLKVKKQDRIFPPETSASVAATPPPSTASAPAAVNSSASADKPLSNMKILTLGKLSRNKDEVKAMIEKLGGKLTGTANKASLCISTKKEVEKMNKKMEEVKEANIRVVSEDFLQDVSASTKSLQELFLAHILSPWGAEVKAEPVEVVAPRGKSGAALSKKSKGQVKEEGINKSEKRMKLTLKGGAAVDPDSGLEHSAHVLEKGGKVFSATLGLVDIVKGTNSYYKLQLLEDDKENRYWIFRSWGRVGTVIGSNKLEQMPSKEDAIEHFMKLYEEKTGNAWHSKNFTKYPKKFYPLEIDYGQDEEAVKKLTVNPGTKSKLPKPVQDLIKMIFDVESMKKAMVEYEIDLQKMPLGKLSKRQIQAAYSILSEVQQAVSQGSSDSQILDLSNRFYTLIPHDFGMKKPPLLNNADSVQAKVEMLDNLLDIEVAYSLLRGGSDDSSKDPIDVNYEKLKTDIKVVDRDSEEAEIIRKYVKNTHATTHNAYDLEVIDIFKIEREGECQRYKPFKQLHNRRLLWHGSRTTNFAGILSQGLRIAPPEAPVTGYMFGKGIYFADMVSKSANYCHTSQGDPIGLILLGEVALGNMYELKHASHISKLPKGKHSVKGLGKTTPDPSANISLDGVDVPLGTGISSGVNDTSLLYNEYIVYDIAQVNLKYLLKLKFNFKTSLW
Put plainly: TR-FRET Binding Assay (Example 71), PARP1. The following applies: TR-FRET assay of Example 71 with His6-PARP1. Here is the method: as §1
Tankyrase 1 (TNKS1): 184.3 μM=5.2 mg/mL His6-TNKS1, MW=28.2 KDa (construct: 1088-1327, 1266M) in 20 mM Tris pH 8, 150 mM NaCl, 10% glycerol, and 0.5 mM TCEP. Alternatively, His6-tankyrase 2 (construct: 934-1166) (His6-TNKS2) or His6-PARP1 (full length) can be substituted for His6-TNKS 1.
as §2
Prepare Biotinylated IWR2 stock solution (3.33× stock) for TOTL and compound wells: 200 nM Biotin-IWR2 in 5% DMSO/AB1b buffer
Prepare BLANK well stock solution: 5% DMSO/AB1b buffer Prepare POSITIVE CONTROL well stock solution (3.33× stock): 200 nM XAV939 in 200 nM Biotin-IWR2/5% DMSO/AB1b buffer Prepare TNKS1 stock solution (5× stock): 300 nM TNKS in AB1a buffer. (Alternatively, use TNKS2 or PARP1 stock solutions.) Prepare Eu/APC stock solution (5× stock): 3.5 nM Eu-SA/50 nM APC-His6Ab in AB2 buffer.
Add 25 μL/well 1.5% DMSO/AB1c buffer in each compound well to the compound concentration at 74 μM in 8.8% DMSO/AB1c buffer or in the 2 μL DMSO CONTROL wells (BLANK, TOTAL and POSITIVE wells) in the compound plate. Transfer 3 μL/well of above solution (solution 1,2,3) to an empty assay plate (BD1536-well plate) as follows: TOTAL and cpd wells: Solution 1 (Biotin-IWR2): BLANK wells: Solution 2 (No Biotin-IWR2): POSITIVE CONTROL wells: Solution 3 (Biotin-IWR2XAV939) Transfer 3 μL/well of the above diluted compound solutions or compound dilution buffer to the above assay plate. Add 2 μL/well of 300 nM TNKS stock solution (4) to every well in the above assay plate. Centrifuge the assay plate at 2100 rpm for 2 min. Incubate the assay plate at 26° C. for 30 minutes. Add 2 μL/well 3.5 nMEu/50 nM APC solution (5) to every well in the above assay plate. Centrifuge the assay plate at 2100 rpm for 2 min. Incubate the assay plate at 26° C. for 60 min. Read the assay plate immediately at excitation wavelength of 330 nm and emission wavelength of […] in time resolved fluorescence mode.
. Representative compound data for the PARP1 assay is in TABLE 2 (below) Values are in μM.

T1 sequence (O95271 1088-1327): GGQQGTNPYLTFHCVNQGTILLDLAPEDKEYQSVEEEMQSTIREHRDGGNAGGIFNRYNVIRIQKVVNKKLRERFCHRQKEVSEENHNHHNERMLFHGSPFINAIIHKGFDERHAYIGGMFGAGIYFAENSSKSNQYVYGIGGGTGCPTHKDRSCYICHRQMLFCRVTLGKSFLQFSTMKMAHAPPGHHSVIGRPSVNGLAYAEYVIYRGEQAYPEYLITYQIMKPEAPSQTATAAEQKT

Turning to `CC(C)C1Cc2[nH]c(=O)c3cnccc3c2CO1` (racemic) [Compound I-15, rac-7-Isopropyl-5,7,8,9-tetrahydro-6-oxa-2,9-diaza-phenanthren-10-one], the IC50 on Tankyrase 1 (TNKS1) is 50.8 nM; at tankyrase 2 (His6-TNKS2), 68.8 nM; in assay [1], greater than 50000 nM.

In assay [1], `CC(C)(CO)C1Cc2[nH]c(=O)c3ccccc3c2CO1` (racemic) [Compound I-30, rac-2-(2-Hydroxy-1,1-dimethyl-ethyl)-1,2,4,10-tetrahydro-3-oxa-10-aza-phenanthren-9-one] registered an IC50 of 53.3 nM.

As to `O=c1[nH]c2c(c3ccccc13)COC(C1CCCC1)C2` (racemic) [Compound I-7, rac-2-Cyclopentyl-1,2,4,10-tetrahydro-3-oxa-10-aza-phenanthren-9-one], the IC50 on Tankyrase 1 (TNKS1) was determined as 34.2 nM; at tankyrase 2 (His6-TNKS2), 43 nM; in assay [1], 119 nM.

In the case of `O=c1[nH]c2c(c3ccccc13)COC(CCc1ccccc1)C2` (racemic) [Compound I-13, rac-2-Phenethyl-1,2,4,10-tetrahydro-3-oxa-10-aza-phenanthren-9-one], the IC50 at Tankyrase 1 (TNKS1) was determined as 40.8 nM; at tankyrase 2 (His6-TNKS2), 52.1 nM; in assay [1] it was 2670 nM.

As to `CC(C)(C)C1Cc2[nH]c(=O)c3sccc3c2CO1` (racemic) [Compound I-40, rac-7-tert-Butyl-5,6,7,9-tetrahydro-8-oxa-3-thia-5-aza-cyclopenta[a]naphthalen-4-one], the IC50 on Tankyrase 1 (TNKS1) stood at 32.6 nM; at tankyrase 2 (His6-TNKS2), 35.5 nM; in assay [1], 222 nM.

As for `O=c1[nH]c2c(c3ccccc13)COC(C1CCOC1)C2` (mixture of isomers) [Compound I-59, 2-(Tetrahydro-furan-3-yl)-1,2,4,10-tetrahydro-3-oxa-10-aza-phenanthren-9-one], the IC50 on Tankyrase 1 (TNKS1) came out at 33.6 nM; on tankyrase 2 (His6-TNKS2), 34.4 nM; in assay [1], 280 nM.

On to `CC1(C(=O)N2CCC(C3Cc4[nH]c(=O)c5cccnc5c4CO3)CC2)CC1` (racemic) [Compound I-57, rac-2-[1-(1-methyl-cyclopropanecarbonyl)-piperidin-4-yl]-1,2,4,10-tetrahydro-3-oxa-5,10-diaza-phenanthren-9-one], for which the figures for the IC50 (on Tankyrase 1 (TNKS1); on tankyrase 2 (His6-TNKS2); in assay [1]) were 40.2 nM, 45.5 nM and 38.6 nM, respectively.

For the compound `CC1(C(=O)N2CCC(C3Cc4[nH]c(=O)c5ccccc5c4CO3)CC2)CC1` (racemic) [Compound I-46, rac-2-[1-(1-Methyl-cyclopropanecarbonyl)-piperidin-4-yl]-1,2,4,10-tetrahydro-3-oxa-10-aza-phenanthren-9-one], the IC50 on Tankyrase 1 (TNKS1) came out at 33.2 nM; at tankyrase 2 (His6-TNKS2), 44.3 nM; in assay [1], 87.1 nM.

`CC(C)C1Cc2[nH]c(=O)c3ccccc3c2CO1` (racemic) [Compound I-2, rac-2-Isopropyl-1,2,4,10-tetrahydro-3-oxa-10-aza-phenanthren-9-one]: the IC50 in assay [1] was determined as 34.3 nM.

Regarding `CC(C)(C)OC(=O)N1CCC(C2Cc3[nH]c(=O)c4cccnc4c3CO2)CC1` (stereo not drawn) [Compound I-51, tert-butyl 4-(5-oxo-6 7 8 10-tetrahydropyrano[4 3-h][l 6]naphthyridin-8-yl)piperidine-1-carboxylate], the IC50 is 39 nM at Tankyrase 1 (TNKS1), 49.8 nM at tankyrase 2 (His6-TNKS2) and 363 nM in assay [1].

Consider `CC(C)C1Cc2[nH]c(=O)c3ccsc3c2CO1` (racemic) [Compound I-28, rac-7-Isopropyl-5,6,7,9-tetrahydro-8-oxa-1-thia-5-aza-cyclopenta[a]naphthalen-4-one], for which the results for the IC50 (at Tankyrase 1 (TNKS1); at tankyrase 2 (His6-TNKS2); in assay [1]) were 81.8 nM, 177 nM and 1920 nM, respectively.

As for `CC(C)(C)OC(=O)N1CCC(C2Cc3[nH]c(=O)c4ccccc4c3CO2)CC1` (racemic) [Compound I-21, rac-4-(9-Oxo-1,4,9,10-tetrahydro-2H-3-oxa-10-aza-phenanthren-2-yl)-piperidine-1-carboxylic acid tert-butyl ester], the figures for the IC50 (at Tankyrase 1 (TNKS1); on tankyrase 2 (His6-TNKS2); in assay [1]) were 33.5 nM, 46.7 nM and 15.9 nM, respectively.

Turning to `CC(=O)N1CCC(C2Cc3[nH]c(=O)c4ccccc4c3CO2)CC1` (racemic) [Compound I-25, rac-2-(1-Acetyl-piperidin-4-yl)-1,2,4,10-tetrahydro-3-oxa-10-aza-phenanthren-9-one], the IC50 on Tankyrase 1 (TNKS1) is 25.5 nM; at tankyrase 2 (His6-TNKS2), 27 nM; in assay [1] it was 67.7 nM.

Turning to `Cc1cccc2c(=O)[nH]c3c(c12)COC(C(C)(C)C)C3` (racemic) [Compound I-41, rac-2-tert-Butyl-5-methyl-1,2,4,10-tetrahydro-3-oxa-10-aza-phenanthren-9-one], the IC50 at Tankyrase 1 (TNKS1) was determined as 21.2 nM; on tankyrase 2 (His6-TNKS2), 26 nM; in assay [1], 46.9 nM.

The compound `CC(C)C1Cc2[nH]c(=O)c3cccnc3c2CO1` (racemic) [Compound I-4, rac-2-Isopropyl-1,2,4,10-tetrahydro-3-oxa-5,10-diaza-phenanthren-9-one] yielded an IC50 in assay [1] of 345 nM.

In assay [1], `O=C(C1COC1)N1CCC(C2Cc3[nH]c(=O)c4ccccc4c3CO2)CC1` (racemic) [Compound I-52, rac-2-[1-(Oxetane-3-carbonyl)-piperidin-4-yl]-1,2,4,10-tetrahydro-3-oxa-10-aza-phenanthren-9-one] gave an IC50 of 32.8 nM.

The compound `Cc1cccc2c(=O)[nH]c3c(c12)CO[C@H](C(C)(C)CO)C3` (single isomer, unassigned) [Compound I-66] registered an IC50 in assay [1] of 89.7 nM.

As for `Cc1cccc2c(=O)[nH]c3c(c12)COC(C(C)C)C3` (racemic) [Compound I-17, rac-2-Isopropyl-5-methyl-1,2,4,10-tetrahydro-3-oxa-10-aza-phenanthren-9-one], the IC50 in assay [1] is 107 nM.

`Cc1cccc2c(=O)[nH]c3c(c12)CO[C@@H](C(C)(C)CO)C3` (single isomer, unassigned) [Compound I-67] came in with an IC50 in assay [1] of 70 nM.

`CC(C)(C)C1Cc2[nH]c(=O)c3ccccc3c2CO1` (racemic) [Compound I-8, rac-2-tert-Butyl-1,2,4,10-tetrahydro-3-oxa-10-aza-phenanthren-9-one] returned an IC50 in assay [1] of 176 nM. Compared with the last compound, the IC50 is about 2.5-fold higher.

For the compound `CS(=O)(=O)N1CCC(C2Cc3[nH]c(=O)c4ccccc4c3CO2)C1` (stereo not drawn) [Compound I-39, 2-(1-Methanesulfonyl-pyrrolidin-3-yl)-1,2,4,10-tetrahydro-3-oxa-10-aza-phenanthren-9-one], the IC50 in assay [1] amounted to 36.5 nM.
